# Assay results: article PMC13495017 (ACS Bio & Med Chem Au, 2026)
# Key:
# Format in all cases: cell-based
# CB2 [1] = molecular target: T1, CB2 (Homo sapiens, UniProt P34972); assay: BRET Gαi1 engagement, CB2 wild-type; settings: HEK-293T, read-out: E max, CB2 Gαi1 Engagement
# [2] = molecular target: CB2 triple mutant (I110L/L182I/V261L) (Homo sapiens, UniProt P34972, I110L/L182I/V261L); assay: BRET Gαi1 engagement, CB2 triple mutant; settings: read-out: E max, CB2 Triple Mutations Gαi1 Engagement
# CB1 I267L = CB1 I267L (Homo sapiens, UniProt P21554, I267L); assay: BRET Gαi1 engagement, CB1 I267L mutant; settings: read-out: E max, CB1 I267L Gαi1 Engagement
# CB2 V261L = CB2 V261L (Homo sapiens, UniProt P34972, V261L); assay: BRET Gαi1 engagement, CB2 V261L mutant; settings: read-out: E max, CB2 V261L Gαi1 Engagement
# CB2 I110L = CB2 I110L (Homo sapiens, UniProt P34972, I110L); assay: BRET Gαi1 engagement, CB2 I110L mutant; settings: read-out: E max, CB2 I110L Gαi1 Engagement
# CB1 = CB1 (Homo sapiens, UniProt P21554); assay: BRET Gαi1 engagement, CB1 wild-type; settings: CB1 WT, HEK-293T, normalized against CP55940, mean ± SEM
# CB2 L182I = CB2 L182I (Homo sapiens, UniProt P34972, L182I); assay: BRET Gαi1 engagement, CB2 L182I mutant; settings: read-out: E max, CB2 L182I Gαi1 Engagement
# CB1 L193I = CB1 L193I (Homo sapiens, UniProt P21554, L193I); assay: BRET Gαi1 engagement, CB1 L193I mutant; settings: read-out: E max, CB1 L193I Gαi1 Engagement
# CB2 [3] = molecular target: T1, CB2; assay: BRET β-arrestin 2 recruitment, CB2 wild-type; settings: HEK-293T, read-out: E max, CB2 β-Arrestin 2 Recruitment
# T1 sequence (P34972 whole entry): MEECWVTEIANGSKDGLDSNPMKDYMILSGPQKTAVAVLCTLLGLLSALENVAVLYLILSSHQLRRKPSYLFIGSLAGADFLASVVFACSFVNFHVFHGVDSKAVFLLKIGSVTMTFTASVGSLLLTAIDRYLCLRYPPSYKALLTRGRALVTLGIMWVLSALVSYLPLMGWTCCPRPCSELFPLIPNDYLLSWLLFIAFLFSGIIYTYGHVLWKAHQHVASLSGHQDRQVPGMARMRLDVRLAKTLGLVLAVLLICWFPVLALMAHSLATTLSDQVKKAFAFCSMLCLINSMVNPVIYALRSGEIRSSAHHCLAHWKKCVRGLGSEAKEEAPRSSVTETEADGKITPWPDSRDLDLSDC
# Chain of CB1 (P21554 whole entry): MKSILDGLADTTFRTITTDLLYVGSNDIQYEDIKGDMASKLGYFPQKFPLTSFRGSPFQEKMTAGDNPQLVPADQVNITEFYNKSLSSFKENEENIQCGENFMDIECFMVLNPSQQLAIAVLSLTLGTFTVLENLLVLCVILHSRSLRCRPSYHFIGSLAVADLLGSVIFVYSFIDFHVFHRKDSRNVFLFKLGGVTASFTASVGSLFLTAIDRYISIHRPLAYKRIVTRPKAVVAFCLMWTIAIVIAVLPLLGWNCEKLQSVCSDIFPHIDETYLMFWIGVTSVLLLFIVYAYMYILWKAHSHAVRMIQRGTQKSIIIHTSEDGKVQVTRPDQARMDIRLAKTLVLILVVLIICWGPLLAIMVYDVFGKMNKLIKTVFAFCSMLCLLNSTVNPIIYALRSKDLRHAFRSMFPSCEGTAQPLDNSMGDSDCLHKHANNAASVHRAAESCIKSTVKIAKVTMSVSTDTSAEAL
# Chain of CB2 I110L (P34972 whole entry I110L): as the sequence (P34972 whole entry) above, with I110L counted along it
# Chain of CB2 triple mutant (I110L/L182I/V261L) (P34972 whole entry I110L/L182I/V261L): as the sequence (P34972 whole entry) above, with I110L, L182I, V261L counted along it
# Chain of CB2 L182I (P34972 whole entry L182I): as the sequence (P34972 whole entry) above, with L182I counted along it
# Chain of CB1 I267L (P21554 whole entry I267L): as the sequence (P21554 whole entry) above, with I267L counted along it
# Chain of CB1 L193I (P21554 whole entry L193I): as the sequence (P21554 whole entry) above, with L193I counted along it
# Chain of CB2 V261L (P34972 whole entry V261L): as the sequence (P34972 whole entry) above, with V261L counted along it
compound,measurement,setting,value
CCCCCCC(C)(C)c1ccc([C@@H]2C[C@H](O)CC[C@H]2CCCO)c(O)c1 [CP55940],Emax,CB2 [1],99.8 ± 2.7%
same,Emax,[2],3 ± 2%
same,Emax,CB1 I267L,77.6 ± 2.5%
same,Emax,CB2 V261L,33.8 ± 2.6%
same,Emax,CB2 I110L,83.1 ± 2.8%
same,"E max, CB1 Gαi1 Engagement",CB1,99.4 ± 3.0%
same,Emax,CB2 L182I,32.2 ± 2.5%
same,Emax,CB1 L193I,98.2 ± 2.2%
same,Emax,CB2 [3],99.7 ± 2.7%
